Results taken from patent US20240293413A1, “COMPOUND AND METHOD FOR TREATING CHEMOTHERAPY-RELATED GASTROINTESTINAL SIDE EFFECTS” (ONQUALITY PHARMACEUTICALS CHINA LTD., priority 2021, published 2024).

Columns and labels:
Format in all cases: in vivo
[1] = tested on: diarrhea caused by a chemotherapeutic agent in Balb/c mice; assay: Examples 230-271 (Table 4): oral CDK inhibitor, relief of diarrhea caused by a chemotherapeutic agent; conditions: CDK inhibitor oral 150 mg/kg single, cycle 7 days
Description: Balb/c mice were fed for 1 week, and then divided into groups. The experiment was divided into a control group, a chemotherapeutic agent group, and a CDK inhibitor group, each of which comprised 10 mice, to perform the administration experiment, for which the administration dosage, mode, time and frequency were shown in Table 4. The control group: being intragastrically administered with the same solvent as that used in the CDK inhibitor group (the time was shown in Table 4), and then being injected/intragastrically administered with the same solvent as that used in the chemotherapeutic agent group (the administration mode was shown in Table 4): the chemotherapeutic agent group: being intragastrically administered with the same solvent as that used in the CDK inhibitor group (the time was shown in Table 4), and then being injected/intragastrically administered with the chemotherapeutic agent (the type, administration mode and dosage were shown in Table 4): the CDK inhibitor group: being intragastrically administered with the CDK inhibitor (the time was shown in Table 4), and then being administered with the chemotherapeutic agent (the mode and dosage were shown in Table 4).
(§1) The diarrhea grading of mice was observed and recorded every day.

[2] = tested on: diarrhea caused by a chemotherapeutic agent in Balb/c mice; assay: Examples 382-405 (Table 7): various administration modes of the CDK inhibitor, relief of diarrhea caused by a chemotherapeutic agent; conditions: for Relative remission rate of oral administration: CDK inhibitor oral 150 mg/kg single
Description: Balb/c mice were fed for 1 week, and then divided into groups. The experiment was divided into a control group, a chemotherapeutic agent group, CDK inhibitor groups (including an oral administration group of a CDK inhibitor, an intraperitoneal injection group of a CDK inhibitor, an intramuscular injection group of a CDK inhibitor, a local administration group of a CDK inhibitor), each of which comprised 10 mice, to perform the administration experiment, for which the administration dosage, mode, time and frequency were shown in Table 7. The control group: being administered with the same solvent as that used in the CDK inhibitor group (the time and mode were shown in Table 7), and then being injected/intragastrically administered with the same solvent as that used in the chemotherapeutic agent group (the administration mode was shown in Table 7): the chemotherapeutic agent group: being administered with the same solvent as that used in the CDK inhibitor group (the time and mode were shown in Table 7), and then being injected/intragastrically administered with the chemotherapeutic agent (the type, administration mode and dosage were shown in Table 7): the oral administration group of the CDK inhibitor: being intragastrically administered with the CDK inhibitor (the time was shown in Table 7), and then being administered with the chemotherapeutic agent (the mode and dosage were shown in Table 7): the intraperitoneal injection group of the CDK inhibitor: being intraperitoneally injected with the CDK inhibitor (the time was shown in Table 7), and then being administered with the chemotherapeutic agent (the mode and dosage were shown in Table 7): the intramuscular injection group of the CDK inhibitor: being intramuscularly injected with the CDK inhibitor (the time was shown in Table 7), and then being administered with the chemotherapeutic agent (the mode and dosage were shown in Table 7); and the local administration group of the CDK inhibitor: the hair on the abdomen of mice was shaved (about 2 cm*2 cm), being applied with the CDK inhibitor (the time was shown in Table 7), and then being administered with the chemotherapeutic agent (the mode and dosage were shown in Table 7).
as §1

[3] = tested on: Chemotherapeutic agent-caused constipation models of Balb/c mice; assay: Examples 272-342 (Table 5): oral CDK inhibitor, relief of constipation caused by a chemotherapeutic agent;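 note: percent of treated mice relieved versus chemotherapy group by feces reduction rate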
Summary of the method: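 Balb/c mice, 10 per group: control, chemotherapeutic agent alone, or intragastric CDK inhibitor followed by the chemotherapeutic agent. Feces produced within 3 hours were recorded daily, and feces reduction rate (%) was calculated relative to the control group.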

With CCN1CCN(Cc2ccc(Nc3ncc(F)c(-c4cc(F)c5nc(C)n(C(C)C)c5c4)n3)nc2)CC1 [Abemaciclib] as the compound, how does the Relative remission rate ([1]; Example 253, Methotrexate (MTX) intramuscular injection 300 mg/kg single, 8 h before) read?
The Relative remission rate was 70%.

And the Relative remission rate ([1]; Example 263, Vinorelbine (NVB) intravenous injection 10 mg/kg single, 0.5 h before)?
The Relative remission rate was 60%.

And the Relative remission rate ([1]; Example 264, Vinorelbine (NVB) intravenous injection 10 mg/kg single, 4 h before)?
The Relative remission rate was 80%.

And the Relative remission rate ([1]; Example 265, Vinorelbine (NVB) intravenous injection 10 mg/kg single, 8 h before)?
Its Relative remission rate is 80%.

What about the Relative remission rate ([1]; Example 266, Vinorelbine (NVB) intravenous injection 10 mg/kg single, 12 h before) of the same compound?
The Relative remission rate was 60%.

And the Relative remission rate ([1]; Example 267, Vinorelbine (NVB) intravenous injection 10 mg/kg single, 24 h before)?
The Relative remission rate was 50%.

What about the Relative remission rate ([1]; Example 268, Vinorelbine (NVB) intravenous injection 10 mg/kg single, 48 h before) of the same compound?
The Relative remission rate was 0%.

And the “Relative remission rate of other administration mode” value ([2]; Example 394, Carboplatin (CBP) intravenous injection 120 mg/kg single, CDK inhibitor intramuscular injection 150 mg/kg single, 8 h before, cycle 10 days)?
The value was 20%.

And the “Relative remission rate of oral administration” value ([2]; Example 394, Carboplatin (CBP) intravenous injection 120 mg/kg single, 8 h before, cycle 10 days)?
Its value is 60%.

What about the “Relative remission rate of other administration mode” value ([2]; Example 396, Gemcitabine (GEM) intraperitoneal injection 120 mg/kg single, CDK inhibitor intraperitoneal injection 150 mg/kg single, 0.5 h before, cycle 8 days) of the same compound?
Its value is 10%.

And the “Relative remission rate of oral administration” value ([2]; Example 396, Gemcitabine (GEM) intraperitoneal injection 120 mg/kg single, 0.5 h before, cycle 8 days)?
The value was 40%.

What about the “Relative remission rate of other administration mode” value ([2]; Example 397, Gemcitabine (GEM) intraperitoneal injection 120 mg/kg single, CDK inhibitor intraperitoneal injection 150 mg/kg single, 4 h before, cycle 8 days) of the same compound?
The value was 20%.

And the “Relative remission rate of oral administration” value ([2]; Example 397, Gemcitabine (GEM) intraperitoneal injection 120 mg/kg single, 4 h before, cycle 8 days)?
Its value is 50%.

What about the “Relative remission rate of other administration mode” value ([2]; Example 398, Gemcitabine (GEM) intraperitoneal injection 120 mg/kg single, CDK inhibitor intraperitoneal injection 150 mg/kg single, 8 h before, cycle 8 days) of the same compound?
Its value is 30%.

What about the “Relative remission rate of oral administration” value ([2]; Example 398, Gemcitabine (GEM) intraperitoneal injection 120 mg/kg single, 8 h before, cycle 8 days) of the same compound?
Its value is 60%.

What about the “Relative remission rate of other administration mode” value ([2]; Example 399, Gemcitabine (GEM) intraperitoneal injection 120 mg/kg single, CDK inhibitor intraperitoneal injection 150 mg/kg single, 12 h before, cycle 8 days) of the same compound?
Its value is 30%.

What about the “Relative remission rate of oral administration” value ([2]; Example 399, Gemcitabine (GEM) intraperitoneal injection 120 mg/kg single, 12 h before, cycle 8 days) of the same compound?
Its value is 60%.

And the “Relative remission rate of other administration mode” value ([2]; Example 400, Gemcitabine (GEM) intraperitoneal injection 120 mg/kg single, CDK inhibitor intraperitoneal injection 150 mg/kg single, 24 h before, cycle 8 days)?
The value was 10%.

What about the “Relative remission rate of oral administration” value ([2]; Example 400, Gemcitabine (GEM) intraperitoneal injection 120 mg/kg single, 24 h before, cycle 8 days) of the same compound?
Its value is 40%.

What about the Relative remission rate ([3]; Example 295, Fluorouracil (5-Fu) intramuscular injection 200 mg/kg single, CDK inhibitor oral 100 mg/kg single, 22 h before, cycle 7 days) of the same compound?
The Relative remission rate was 60%.

And the Relative remission rate ([3]; Example 296, Oxaliplatin intraperitoneal injection 20 mg/kg single, CDK inhibitor oral 100 mg/kg single, 0.5 h before, cycle 8 days)?
Its Relative remission rate is 50%.

And the Relative remission rate ([3]; Example 297, Oxaliplatin intraperitoneal injection 20 mg/kg single, CDK inhibitor oral 100 mg/kg single, 4 h before, cycle 8 days)?
The Relative remission rate was 40%.

And the Relative remission rate ([3]; Example 298, Oxaliplatin intraperitoneal injection 20 mg/kg single, CDK inhibitor oral 100 mg/kg single, 8 h before, cycle 8 days)?
Its Relative remission rate is 60%.

What about the Relative remission rate ([3]; Example 299, Oxaliplatin intraperitoneal injection 20 mg/kg single, CDK inhibitor oral 100 mg/kg single, 12 h before, cycle 8 days) of the same compound?
The Relative remission rate was 60%.

What about the Relative remission rate ([3]; Example 300, Oxaliplatin intraperitoneal injection 20 mg/kg single, CDK inhibitor oral 100 mg/kg single, 24 h before, cycle 8 days) of the same compound?
The Relative remission rate was 40%.

And the Relative remission rate ([3]; Example 301, Oxaliplatin intraperitoneal injection 20 mg/kg single, CDK inhibitor oral 100 mg/kg single, 48 h before, cycle 8 days)?
The Relative remission rate was 0%.

What about the Relative remission rate ([3]; Example 312, Irinotecan (CPT-11) intravenous injection 260 mg/kg single, CDK inhibitor oral 150 mg/kg single, 14 h before, cycle 7 days) of the same compound?
Its Relative remission rate is 50%.

And the Relative remission rate ([3]; Example 324, Gemcitabine and paclitaxel intraperitoneal injection 60 (G) 10 (P) mg/kg single, CDK inhibitor oral 150 mg/kg single, 24 h before, cycle 8 days)?
Its Relative remission rate is 60%.

What about the Relative remission rate ([3]; Example 342, Methotrexate (MTX) intraperitoneal injection 300 mg/kg single, CDK inhibitor oral 150 mg/kg single, 8 h before, cycle 7 days) of the same compound?
The Relative remission rate was 30%.
